Results from PMC10584170, “Machine learning-based phenotypic imaging to characterise the targetable biology of Plasmodium falciparum male gametocytes for the development of transmission-blocking antimalarials” (PLOS Pathogens, 2023).
Like-named read-outs stand apart in the source and are kept apart here.

Tests used:
[1] = system: P. falciparum male gametocytes; experiment: P. falciparum Dual Gamete Formation Assay (PfDGFA), male readout (exflagellation); assay type: cell-based, Plasmodium falciparum NF54; conditions: for Selectivity Ratio M: HepG2 Tox50 versus male IC50; for inhibition at 2 µM / IC50: Plasmodium falciparum; for inhibition at 2 µM: 24h preincubation with gametocytes; for IC50: PfDGFA, 24 h incubation with gametocytes before induction, exflagellation readout, read-out: Male IC50; for Activity: hit = >50% inhibition in male or female readout in at least 3 replicates, 0 = no class assigned
Procedure: (§1) P. falciparum NF54 (originally isolated from an imported malaria case in the Netherlands in the 1980s; BEI Resources, cat. No. MRA-1000) strain asexual parasites were maintained between 0.3–5% parasitaemia by regular passage in complete culture medium (RPMI supplemented with 25 mM HEPES, 50 μg ml^−1 hypoxanthine, 4.8 g l^−1 NaHCO3, 2mM L-glutamine, 5% pooled type AB serum, 0.5% Albumax II (Gibco)) at 4% haematocrit in washed whole blood (National Blood and Transfusion Service or Centro de Transfusiones de la Comunidad de Madrid CTCM) under a 1% O2/3% CO2/96% N2 environment. Gametocytes were induced by seeding culture flasks at 2% parasitaemia/4% haematocrit and subjecting them to daily medium changes for 14 days whilst maintaining a temperature of 37°C at all times. On Day 14, the maturity of gametocytes was assessed by quantifying male gametogenesis (exflagellation). A 20 μl sample of gametocyte culture was mixed with equal volume of ookinete medium (complete culture medium supplemented with 0.1 μM xanthurenic acid) at room temperature and transferred to a haemocytometer. After 20 min at room temperature, exflagellation was accurately quantified as described in Delves et al. 2016 [17].
(§2) The Pf DGFA was performed as described in Delves et al. 2016 [17]. […] Plates were then incubated for 24 h at 37°C in a humidified box under a 1% O2/3% CO2/96% N2 gas mix. Gametogenesis was triggered by addition of 10 μl per well of ookinete medium + 0.27 μg ml^-1 Cy3-labelled anti-Pfs25 antibody. Plates were incubated on a metal block at 4°C for 4 min to ensure even cooling, then 28°C for a further 4 min. Exflagellation was recorded by capturing 10 frames over 1 s under brightfield illumination using a x4 objective with a 1.5x zoom (effectively x6) attached to an automated Nikon Ti fluorescence microscope. After recording exflagellation, plates were incubated for a further 24 h in the dark at 28°C to ensure maximal expression of Pfs25 by female gametes. The plates were then returned to the microscope and female gametes imaged at x6 using fluorescence microscopy.
(§3) Exflagellation centres and female gametes were quantified using custom image analysis pipelines developed within ICY Bioimage Analysis (https://icy.bioimageanalysis.org/).

[2] = system: P. falciparum female gametocytes; experiment: P. falciparum Dual Gamete Formation Assay (PfDGFA), female readout (Pfs25-positive female gametes); assay type: cell-based, Plasmodium falciparum NF54; conditions: for Selectivity ratio F: HepG2 Tox50 versus female IC50; for inhibition at 2 µM / IC50: Plasmodium falciparum; for inhibition at 2 µM: 24h preincubation with gametocytes; for IC50: PfDGFA, 24 h incubation with gametocytes before induction, female gamete readout, read-out: Female IC50
Procedure: as §1, §2, §3

[3] = PfDGFA at 2µM, average of replicates, read-out: Average inhibition male (%)
[4] = PfDGFA at 2µM, replicate R1, read-out: % inhibition male (individual replicates) R1
[5] = PfDGFA at 2µM, replicate R2, read-out: % inhibition male (individual replicates) R2
[6] = PfDGFA at 2µM, replicate R3, read-out: % inhibition male (individual replicates) R3
[7] = PfDGFA at 2µM, replicate R4, read-out: % inhibition male (individual replicates) R4
[8] = number of replicates with >50% inhibition in the male readout, 2µM
[9] = PfDGFA at 2µM, average of replicates, read-out: Average inhibition female (%)
[10] = PfDGFA at 2µM, replicate R1, read-out: % inhibition female (individual replicates) R1
[11] = PfDGFA at 2µM, replicate R2, read-out: % inhibition female (individual replicates) R2
[12] = PfDGFA at 2µM, replicate R3, read-out: % inhibition female (individual replicates) R3
[13] = PfDGFA at 2µM, replicate R4, read-out: % inhibition female (individual replicates) R4
[14] = number of replicates with >50% inhibition in the female readout, 2µM
[15] = PfDGFA at 2µM, 24h preincubation with gametocytes prior to induction of gametogenesis, replicate R1
[16] = PfDGFA at 2µM, 24h preincubation with gametocytes prior to induction of gametogenesis, replicate R4
[17] = PfDGFA at 2µM, 24h preincubation, average of replicates
[18] = PfDGFA at 2µM, 24h preincubation with gametocytes prior to induction of gametogenesis, replicate R3
[19] = 2µM, 24h preincubation with gametocytes prior to induction of gametogenesis, average of replicates
[20] = 2µM, 24h preincubation with gametocytes prior to induction of gametogenesis, replicate R1
[21] = 2µM, 24h preincubation with gametocytes prior to induction of gametogenesis, replicate R3
[22] = 2µM, 24h preincubation with gametocytes prior to induction of gametogenesis, replicate R4
[23] = 2µM, 24h preincubation, number of replicates with >50% inhibition in the male readout
[24] = 2µM, 24h preincubation, number of replicates with >50% inhibition in the female readout
[25] = 2µM, 24h preincubation, hits selected on >50% inhibition in the male readout across replicates
[26] = PfDGFA at 2µM, 24h preincubation
[27] = 2µM, 24h preincubation, hits selected on >50% inhibition in the female readout across replicates

Cn1c(Sc2ncnc3sccc23)nc2ccccc21 [TCMDC-124514]
Selectivity Ratio M [1]: 138.65 | inhibition at 2 µM [1, 3]: 74.4% | inhibition at 2 µM [1, 4]: 82.1% | inhibition at 2 µM [1, 5]: 75.9% | inhibition at 2 µM [1, 6]: 86.7% | inhibition at 2 µM [1, 7]: 52.9% | IC50 [1]: 720 nM | HitlevelM [1, 8]: 4 | Selectivity ratio F [2]: 179.15 | inhibition at 2 µM [2, 9]: 56.9% | inhibition at 2 µM [2, 10]: 48.2% | inhibition at 2 µM [2, 11]: 73.8% | inhibition at 2 µM [2, 12]: 37.5% | inhibition at 2 µM [2, 13]: 68.1% | IC50 [2]: 560 nM | HitlevelF [2, 14]: 2

O=C(NC1CCN(Cc2ccccc2)CC1)c1cc(C(=O)NC2CCN(Cc3ccccc3)CC2)cc(C(=O)NC2CCN(Cc3ccccc3)CC2)c1 [TCMDC-124568]
Selectivity Ratio M [1]: 12.97 | inhibition at 2 µM [1, 3]: 80% | inhibition at 2 µM [1, 4]: 85% | inhibition at 2 µM [1, 5]: 82% | inhibition at 2 µM [1, 6]: 68.9% | inhibition at 2 µM [1, 7]: 84.2% | IC50 [1]: 7710 nM | HitlevelM [1, 8]: 4 | Selectivity ratio F [2]: 10.00 | inhibition at 2 µM [2, 9]: 37.6% | inhibition at 2 µM [2, 10]: 24.6% | inhibition at 2 µM [2, 11]: 60.5% | inhibition at 2 µM [2, 12]: 22.2% | inhibition at 2 µM [2, 13]: 43.3% | IC50 [2]: > 10000 nM | HitlevelF [2, 14]: 1

COc1cc(C(=O)NC2CCc3ccccc32)cc(Cl)c1OC (stereo not shown) [TCMDC-124601]
% inhibition male (individual replicates) R1 [1, 15]: 0.65% | % inhibition male (individual replicates) R4 [1, 16]: 7.9% | Average inhibition male (%) [1, 17]: 1.1% | % inhibition female (individual replicates) R1 [2, 15]: 1.9% | % inhibition female (individual replicates) R3 [2, 18]: -2.4% | % inhibition female (individual replicates) R4 [2, 16]: 1.9% | Average inhibition female (%) [2, 17]: -0.8%

CN1CCC(N2CCC(Oc3cccc(C(=O)NCCCC4CCCC4)c3)CC2)CC1 [TCMDC-124677]
Average inhibition male (%) [1, 19]: 46.8% | % inhibition male (individual replicates) R1 [1, 20]: 55.2% | % inhibition male (individual replicates) R3 [1, 21]: 20.7% | % inhibition male (individual replicates) R4 [1, 22]: 57.6% | HitlevelM [1, 23]: 3 | Average inhibition female (%) [2, 19]: 28.5% | % inhibition female (individual replicates) R1 [2, 20]: 33.3% | % inhibition female (individual replicates) R3 [2, 21]: 20.8% | % inhibition female (individual replicates) R4 [2, 22]: 15.0% | HitlevelF [2, 24]: 0

Cc1ccc(-n2cc(CNCC3CCN(CCO)CC3)c(-c3ccc(F)cc3)n2)cc1 [TCMDC-124689]
Average inhibition male (%) [1, 19]: 53.6% | % inhibition male (individual replicates) R1 [1, 20]: 49.0% | % inhibition male (individual replicates) R4 [1, 22]: 58.1% | HitlevelM [1, 23]: 2 | Average inhibition female (%) [2, 19]: 19.9% | % inhibition female (individual replicates) R1 [2, 20]: 20.1% | % inhibition female (individual replicates) R3 [2, 21]: 19.4% | % inhibition female (individual replicates) R4 [2, 22]: 10.0% | HitlevelF [2, 24]: 0

O=C(c1ccc([N+](=O)[O-])o1)N1CCN(c2nc3c(F)cc(F)cc3s2)CC1 [TCMDC-125149]
Average inhibition male (%) [1, 19]: 6.8% | % inhibition male (individual replicates) R1 [1, 20]: 35.5% | % inhibition male (individual replicates) R3 [1, 21]: -37.1% | % inhibition male (individual replicates) R4 [1, 22]: -11.8% | HitlevelM [1, 25]: 0 | Activity [1, 26]: 0 | Average inhibition female (%) [2, 19]: 6.5% | % inhibition female (individual replicates) R1 [2, 20]: 10.3% | % inhibition female (individual replicates) R3 [2, 21]: -4.5% | % inhibition female (individual replicates) R4 [2, 22]: 0.07% | HitlevelF [2, 27]: 0

CNCCCNCc1ccc(-c2ccc(F)c(Cl)c2)o1.Cl [TCMDC-125237]
Average inhibition male (%) [1, 19]: 15.1% | % inhibition male (individual replicates) R1 [1, 20]: 6.0% | % inhibition male (individual replicates) R4 [1, 22]: 19.5% | HitlevelM [1, 25]: 0 | Activity [1, 26]: 0 | Average inhibition female (%) [2, 19]: 13.7% | % inhibition female (individual replicates) R1 [2, 20]: 17.7% | % inhibition female (individual replicates) R3 [2, 21]: 9.1% | % inhibition female (individual replicates) R4 [2, 22]: 15.1% | HitlevelF [2, 27]: 0

COCCn1c(Sc2ncnc3sccc23)nc2ccccc21 [TCMDC-125258]
Selectivity Ratio M [1]: 81.39 | inhibition at 2 µM [1, 3]: 69.9% | inhibition at 2 µM [1, 4]: 86.4% | inhibition at 2 µM [1, 5]: 73.7% | inhibition at 2 µM [1, 6]: 49.8% | inhibition at 2 µM [1, 7]: 69.6% | IC50 [1]: 1230 nM | HitlevelM [1, 8]: 3 | Selectivity ratio F [2]: 94.48 | inhibition at 2 µM [2, 9]: 60.4% | inhibition at 2 µM [2, 10]: 48.4% | inhibition at 2 µM [2, 11]: 75.4% | inhibition at 2 µM [2, 12]: 37.4% | inhibition at 2 µM [2, 13]: 80.3% | IC50 [2]: 1060 nM | HitlevelF [2, 14]: 2

NC(=O)c1ccsc1NC(=O)CNC(c1ccccc1)c1ccc(Cl)cc1 (stereo not shown) [TCMDC-125330]
% inhibition male (individual replicates) R1 [1, 15]: -5.4% | % inhibition male (individual replicates) R3 [1, 18]: -28.2% | % inhibition male (individual replicates) R4 [1, 16]: -28.5% | Average inhibition male (%) [1, 17]: -19.7% | % inhibition female (individual replicates) R1 [2, 15]: 0.32% | % inhibition female (individual replicates) R3 [2, 18]: -9.3% | % inhibition female (individual replicates) R4 [2, 16]: 6.9% | Average inhibition female (%) [2, 17]: 1.5%

O=C(Nc1nc(-c2ccccn2)cs1)c1ccc(S(=O)(=O)N2CCc3ccccc32)cc1 [TCMDC-125432]
Average inhibition male (%) [1, 19]: -21.9% | % inhibition male (individual replicates) R1 [1, 20]: -19.8% | % inhibition male (individual replicates) R3 [1, 21]: -49.6% | % inhibition male (individual replicates) R4 [1, 22]: -25.8% | HitlevelM [1, 23]: 0 | Average inhibition female (%) [2, 19]: 23.2% | % inhibition female (individual replicates) R1 [2, 20]: 27.4% | % inhibition female (individual replicates) R3 [2, 21]: 14.7% | % inhibition female (individual replicates) R4 [2, 22]: 30.9% | HitlevelF [2, 24]: 0

COc1ccc(-c2csc3nc(C)nc(Cl)c23)cc1OC [TCMDC-125523]
Average inhibition male (%) [1, 19]: -3.5% | % inhibition male (individual replicates) R1 [1, 20]: -8.3% | % inhibition male (individual replicates) R3 [1, 21]: -15.7% | % inhibition male (individual replicates) R4 [1, 22]: 6.2% | HitlevelM [1, 25]: 0 | Activity [1, 26]: 0 | Average inhibition female (%) [2, 19]: 3.7% | % inhibition female (individual replicates) R1 [2, 20]: 4.5% | % inhibition female (individual replicates) R3 [2, 21]: -29.0% | % inhibition female (individual replicates) R4 [2, 22]: 16.0% | HitlevelF [2, 27]: 0
